Measured values from patent publication US20030199671A1, “Binding molecules for Fc-region polypeptides” (priority 2001, published 2003).
“And” between values parts separate entries of the source, which are not always exact repeats. Equal entries are not always repeated. Where two headings read alike, the source gives them in different places.

What was measured:
human plasma IgG1 = molecular target: T1, human plasma IgG1 (Homo sapiens, UniProt P01857); test: Fluorescence anisotropy binding, Oregon Green labeled peptide
T1 construct: the individual human plasma IgG isoforms: IgG1, IgG2, IgG3, or IgG4; purchased Calbiochem; host or cells: human plasma
Description: (§1) Peptides were synthesized by BACHEM and then Oregon Green labeled and HPLC purified. Binding studies were performed using human plasma IgG isoforms: IgG1, IgG2, IgG3, and IgG4, obtained from Calbiochem.
(§2) Binding studies were carried out at either pH 4.0, 7.5, or 9.5, with or without salt in the following buffers:
(§3) 2) 10 mM Sodium Citrate, 500 mM Sodium Chloride, 0.01% Tween 20, pH 4.0;
(§4) 4) […], 500 mM Sodium Chloride, 0.01% Tween 20, pH 7.5;
(§5) 5) 10 mM Sodium Bicarbonate, 0.01% Tween 20, pH 9.5;
(§6) 6) 10 mM Sodium Bicarbonate, 500 mM Sodium Chloride, 0.01% Tween 20, pH 9.5; or […]

human plasma IgG4 = molecular target: T2, human plasma IgG4 (Homo sapiens, UniProt P01861); test: as above
T2 construct: the individual human plasma IgG isoforms: IgG1, IgG2, IgG3, or IgG4; purchased Calbiochem; host or cells: human plasma
Description: as §1, §2, §3, §4, §5, §6

human plasma IgG3 = molecular target: T3, human plasma IgG3 (Homo sapiens, UniProt P01860); test: as above
T3 construct: the individual human plasma IgG isoforms: IgG1, IgG2, IgG3, or IgG4; purchased Calbiochem; host or cells: human plasma
Description: as §1, §2, §3, §4, §5, §6

human plasma IgG2 = molecular target: T4, human plasma IgG2 (Homo sapiens, UniProt P01859); test: as above
T4 construct: the individual human plasma IgG isoforms: IgG1, IgG2, IgG3, or IgG4; purchased Calbiochem; host or cells: human plasma
Description: as §1, §2, §3, §4, §5, §6

human IgG = test: Static (filterplate) binding capacity
Description: These media were used to determine the effect of ligand density on human IgG binding capacity in both static (filterplate) and dynamic (mini-column) modes with commercial immobilized recombinant Protein A (Repligen, IPA400) at a single density as control. Actual ligand densities obtained ranged from 0.17 to 3.2 μmole/ml media as confirmed by quantitative amino acid analysis.
After incubation of the samples, with shaking, at room temperature for one hour, the supernatant liquid from each well, containing unbound IgG, was collected by centrifugation into the cognate well of a collection plate. The assay plate was washed three times with PBST (200 μl/wash) and bound IgG was eluted from the media samples by incubation for 30-60 minutes at room temperature in 100 μl Elution Buffer (100 mM CAPS, pH 11.5). Eluates were collected by centrifugation for analysis. Protein concentrations were determined from A280 measurements and plotted as a function of mg human IgG bound per ml resin vs. mg human IgG applied per ml resin.
The amount of IgG captured (estimated from IgG recovered in the elution step) by the various media is dependent upon both the IgG concentration and the ligand density. […] Under these static conditions, where both ligand and target concentrations are close to KD values, equilibrium binding is established and total capacities cannot be accurately determined. However, over the IgG range of 0 to 25 mg IgG applied per ml resin (0 to 2.5 mg/ml target added to 10 μl of resin), capture of IgG is linear. Beyond this point, up to a level of 200 mg IgG applied per ml resin, saturation becomes more pronounced.

[1] = 10 nM Tris-HCl, 500 mM Sodium Chloride, pH 7.5, read-out: KD (μM) IgG1 pH 7.5 + salt
[2] = 10 mM Sodium Bicarbonate, 500 mM Sodium Chloride, pH 9.5, read-out: KD (μM) IgG1 pH 9.5 + salt
[3] = 10 mM Sodium Bicarbonate, pH 9.5, read-out: KD (μM) IgG1 pH 9.5 − salt
[4] = 10 mM Sodium Citrate, 500 mM Sodium Chloride, pH 4.0, read-out: KD (μM) IgG1 pH 4.0 + salt
[5] = 10 mM Sodium Citrate, pH 4.0, read-out: KD (μM) IgG1 pH 4.0 − salt
[6] = TBS, 0.01% Tween 20, pH 7.5, read-out: KD (μM) IgG1 TBS
[7] = 10 nM Tris-HCl, 500 mM Sodium Chloride, pH 7.5, read-out: KD (μM) IgG4 pH 7.5 + salt
[8] = 10 mM Sodium Bicarbonate, 500 mM Sodium Chloride, pH 9.5, read-out: KD (μM) IgG4 pH 9.5 + salt
[9] = 10 mM Sodium Bicarbonate, pH 9.5, read-out: KD (μM) IgG4 pH 9.5 − salt
[10] = 10 mM Sodium Citrate, 500 mM Sodium Chloride, pH 4.0, read-out: KD (μM) IgG4 pH 4.0 + salt
[11] = 10 mM Sodium Citrate, pH 4.0, read-out: KD (μM) IgG4 pH 4.0 − salt
[12] = TBS, 0.01% Tween 20, pH 7.5, read-out: KD (μM) IgG4 TBS
[13] = 10 mM Sodium Bicarbonate, 500 mM Sodium Chloride, pH 9.5, read-out: KD (μM) IgG3 pH 9.5 + salt
[14] = 10 mM Sodium Bicarbonate, pH 9.5, read-out: KD (μM) IgG3 pH 9.5 − salt
[15] = 10 mM Sodium Citrate, 500 mM Sodium Chloride, pH 4.0, read-out: KD (μM) IgG3 pH 4.0 + salt
[16] = 10 mM Sodium Citrate, pH 4.0, read-out: KD (μM) IgG3 pH 4.0 − salt
[17] = 10 mM Tris-HCl, pH 7.5, read-out: KD (μM) IgG3 pH 7.5 − salt
[18] = TBS, 0.01% Tween 20, pH 7.5, read-out: KD (μM) IgG3 TBS
[19] = 10 nM Tris-HCl, 500 mM Sodium Chloride, pH 7.5, read-out: KD (μM) IgG2 pH 7.5 + salt
[20] = 10 mM Sodium Bicarbonate, 500 mM Sodium Chloride, pH 9.5, read-out: KD (μM) IgG2 pH 9.5 + salt
[21] = 10 mM Sodium Bicarbonate, pH 9.5, read-out: KD (μM) IgG2 pH 9.5 − salt
[22] = 10 mM Sodium Citrate, 500 mM Sodium Chloride, pH 4.0, read-out: KD (μM) IgG2 pH 4.0 + salt
[23] = 10 mM Sodium Citrate, pH 4.0, read-out: KD (μM) IgG2 pH 4.0 − salt
[24] = 10 mM Tris-HCl, pH 7.5, read-out: KD (μM) IgG2 pH 7.5 − salt
[25] = TBS, 0.01% Tween 20, pH 7.5, read-out: KD (μM) IgG2 TBS

T2 sequence (P01861 1-327 isoform P01861-1): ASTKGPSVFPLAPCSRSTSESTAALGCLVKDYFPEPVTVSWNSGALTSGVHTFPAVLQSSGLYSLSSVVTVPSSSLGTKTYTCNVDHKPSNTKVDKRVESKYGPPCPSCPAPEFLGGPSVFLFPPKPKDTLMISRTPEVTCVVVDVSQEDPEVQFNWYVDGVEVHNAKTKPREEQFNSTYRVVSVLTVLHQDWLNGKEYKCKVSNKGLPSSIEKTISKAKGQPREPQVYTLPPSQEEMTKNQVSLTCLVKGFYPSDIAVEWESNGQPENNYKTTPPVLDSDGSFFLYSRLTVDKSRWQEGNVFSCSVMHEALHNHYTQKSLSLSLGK
T3 sequence (P01860 1-377 isoform P01860-1): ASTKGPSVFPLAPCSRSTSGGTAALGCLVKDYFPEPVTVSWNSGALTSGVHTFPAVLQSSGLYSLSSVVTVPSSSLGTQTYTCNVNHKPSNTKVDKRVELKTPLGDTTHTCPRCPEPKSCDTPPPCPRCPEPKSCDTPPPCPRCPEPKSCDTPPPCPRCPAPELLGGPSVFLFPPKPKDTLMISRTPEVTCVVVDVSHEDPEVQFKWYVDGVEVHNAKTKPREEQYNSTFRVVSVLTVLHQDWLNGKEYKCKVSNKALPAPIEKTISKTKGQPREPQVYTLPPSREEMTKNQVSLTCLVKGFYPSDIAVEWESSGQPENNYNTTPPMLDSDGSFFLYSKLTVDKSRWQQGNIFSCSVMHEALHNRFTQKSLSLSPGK
T1 sequence (P01857 1-330 isoform P01857-1): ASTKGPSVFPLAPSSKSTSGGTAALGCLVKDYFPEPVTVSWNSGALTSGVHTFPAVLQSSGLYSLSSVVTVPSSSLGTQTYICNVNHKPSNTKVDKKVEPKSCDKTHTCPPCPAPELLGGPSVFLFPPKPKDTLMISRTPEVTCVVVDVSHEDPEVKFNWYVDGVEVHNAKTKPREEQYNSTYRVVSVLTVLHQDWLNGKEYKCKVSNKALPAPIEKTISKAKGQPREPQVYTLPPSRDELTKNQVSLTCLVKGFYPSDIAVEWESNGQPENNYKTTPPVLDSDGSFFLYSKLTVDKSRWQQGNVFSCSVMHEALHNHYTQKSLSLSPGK
T4 sequence (P01859 1-326 isoform P01859-1): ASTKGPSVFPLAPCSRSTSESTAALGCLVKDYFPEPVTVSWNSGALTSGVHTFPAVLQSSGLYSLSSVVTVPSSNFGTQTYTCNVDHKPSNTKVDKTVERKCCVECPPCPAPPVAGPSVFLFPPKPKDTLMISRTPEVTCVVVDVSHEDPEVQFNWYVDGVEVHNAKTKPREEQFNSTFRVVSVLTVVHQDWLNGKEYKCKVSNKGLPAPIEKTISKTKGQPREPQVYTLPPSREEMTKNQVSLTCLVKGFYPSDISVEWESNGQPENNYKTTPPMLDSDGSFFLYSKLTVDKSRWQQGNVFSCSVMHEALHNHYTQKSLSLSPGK

Kd (human plasma IgG1; [1]) | Kd (human plasma IgG1; [2]) | Kd (human plasma IgG1; [3]) | Kd (human plasma IgG1; [4]) | Kd (human plasma IgG1; [5]) | Kd (human plasma IgG1; [6]) | Kd (human plasma IgG4; [7]) | Kd (human plasma IgG4; [8]) | Kd (human plasma IgG4; [9]) | Kd (human plasma IgG4; [10]) | Kd (human plasma IgG4; [11]) | Kd (human plasma IgG4; [12]) | Kd (human plasma IgG3; [13]) | Kd (human plasma IgG3; [14]) | Kd (human plasma IgG3; [15]) | Kd (human plasma IgG3; [16]) | Kd (human plasma IgG3; [17]) | Kd (human plasma IgG3; [18]) | Kd (human plasma IgG2; [19]) | Kd (human plasma IgG2; [20]) | Compound | further results
> 10 µM | > 10 µM | > 10 µM | > 10 µM | > 10 µM | > 10 µM | > 10 µM | > 10 µM | > 10 µM | > 10 µM | > 10 µM | > 10 µM | > 10 µM | > 10 µM | 1 to 2 µM | 1 ± 0.26 µM | > 10 µM | > 10 µM | > 10 µM | > 10 µM | CC(=O)N[C@@H](C)C(=O)NCC(=O)N[C@@H](CCCCN)C(=O)N[C@@H](Cc1ccc(O)cc1)C(=O)N[C@@H](Cc1c[nH]c2ccccc12)C(=O)N[C@H]1CSSC[C@@H](C(=O)N2CCC[C@H]2C(=O)N[C@@H](C)C(=O)N[C@@H](CC(N)=O)C(=O)N2CCC[C@H]2C(=O)NCC(=O)N2CCC[C@H]2C(=O)N[C@@H](CCC(=O)O)C(=O)NCC(=O)NCC(=O)NCC(=O)N[C@@H](CCCCN)C(N)=O)NC(=O)[C@H](C(C)C)NC(=O)CNC(=O)[C@H](Cc2c[nH]c3ccccc23)NC(=O)[C@H](CC(C)C)NC(=O)[C@H](CC(N)=O)NC1=O [DX395] | Kd (human plasma IgG1; 10 mM Tris-HCl, pH 7.5, read-out: KD (μM) IgG1 pH 7.5 − salt): > 10 µM; Kd (human plasma IgG4; 10 mM Tris-HCl, pH 7.5, read-out: KD (μM) IgG4 pH 7.5 − salt): > 10 µM; Kd (human plasma IgG2; [21]): > 10 µM; Kd (human plasma IgG2; [22]): > 10 µM; Kd (human plasma IgG2; [23]): > 10 µM; Kd (human plasma IgG2; [24]): > 10 µM; Kd (human plasma IgG2; [25]): > 10 µM
> 10 µM | > 10 µM | > 10 µM | > 10 µM | ~2 µM | > 10 µM | > 10 µM | > 10 µM | > 10 µM | > 10 µM | ~2 µM | > 10 µM | 0.3 ± 0.1 µM | > 10 µM | 0.04 to 0.3 µM | ~0.02 µM and 0.02 µM | > 10 µM | > 10 µM | > 10 µM | > 10 µM | CC(=O)N[C@@H](C)C(=O)NCC(=O)N[C@@H](C)C(=O)N[C@@H](C)C(=O)N[C@H](C(=O)N[C@H]1CSSC[C@@H](C(=O)N[C@H](C(=O)N[C@@H](CC(=O)O)C(=O)N[C@@H](CO)C(=O)N2CCC[C@H]2C(=O)NCC(=O)N2CCC[C@H]2C(=O)N[C@@H](CCC(=O)O)C(=O)NCC(=O)NCC(=O)NCC(=O)N[C@@H](CCCCN)C(N)=O)[C@@H](C)O)NC(=O)[C@H](Cc2ccccc2)NC(=O)[C@H](Cc2c[nH]c3ccccc23)NC(=O)[C@H](CCC(N)=O)NC(=O)[C@H](Cc2ccc(O)cc2)NC(=O)[C@H](Cc2ccc(O)cc2)NC(=O)[C@H](Cc2c[nH]c3ccccc23)NC(=O)[C@H](Cc2ccc(O)cc2)NC(=O)[C@H](CO)NC(=O)[C@H]([C@@H](C)O)NC(=O)[C@H](CO)NC1=O)[C@@H](C)O [DX398] | Kd (human plasma IgG3; 10 nM Tris-HCl, 500 mM Sodium Chloride, pH 7.5, read-out: KD (μM) IgG3 pH 7.5 + salt): 0.3 ± 0.03 µM; Kd (human plasma IgG2; [21]): > 10 µM; Kd (human plasma IgG2; [22]): > 10 µM; Kd (human plasma IgG2; [23]): ~2 µM; Kd (human plasma IgG2; [24]): > 10 µM; Kd (human plasma IgG2; [25]): > 10 µM
– | – | – | – | – | – | – | – | – | – | – | – | – | – | – | – | – | – | – | – | Ac-GDRRACSRDWSGALVWCAGHEPGPEGGGK-NH2 (not fully specified (bridges); printed as Ac-GDRRACSRDWSGALVWCAGHEPGPEGGGK-NH2; cysteine pairing not given here) [DX253] | Capacity (mg IgG/mL resin) Static (human IgG; Ligand Density 0.17 μM/mL): 1.1 mg IgG/mL resin; Capacity (mg IgG/mL resin) Static (human IgG; Ligand Density 0.84 μM/mL): 8.5 mg IgG/mL resin; Capacity (mg IgG/mL resin) Static (human IgG; Ligand Density 1.45 μM/mL): 13.5 mg IgG/mL resin; Capacity (mg IgG/mL resin) Static (human IgG; Ligand Density 2.75 μM/mL): 17.4 mg IgG/mL resin
